Source: ChEMBL document CHEMBL1773064, “Engineered Thermoplasma acidophilum factor F3 mimics human aminopeptidase N (APN) as a target for anticancer drug development” (Bioorg Med Chem, 2011)

Legend:
[1] = Inhibition of Thermoplasma acidophilum ATCC25905 recombinant Tricorn protease-interacting factor F3 E101Q, N261T mutant using Leu-p-nitroanilide as a substrate after 30 mins
[2] = Solubility of compound; type: physicochemical

Structure (SMILES): NC(Cc1ccccc1)C(=O)NC(CCCCNC(=O)OCc1ccccc1)C(=O)NO (configuration not stated)
- IC50 [1]: 30 µM
- solubility [2]: soluble
